The subject of the experiment is HCV (Ib) RNA replication. Nature of the experiment: Cell-based luciferase reporter HCV (1b) RNA replication assay (replicon cell lines Huh-7 5.2 and ET). Set-up: species or system Hepatitis C virus. The note with it: Hepatitis C virus, Huh-7, 96 h, HCV 1b genotype replicon, luciferase readout, 4 days incubation; read-out: EC50_1b. The method, boiled down: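 Compounds were tested at eleven concentrations in duplicate over 4 days at 37 °C, 5% CO2. The cells were luciferase-reporter HCV 1b replicon lines 5.2 (NS5A adaptive mutation) or ET (NS4B mutation). Luminescence of lysates was measured, and IC50s were derived by nonlinear curve fitting.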
(Reporter assays use an easily measured gene product as a stand-in for the process of interest.)

Each structure is given as a SMILES string. Bounds are passed on as bounds.

In the case of `C[C@H]1CN(c2ccc3nc([C@@H]4CCCN4C(=O)OC(C)(C)C)[nH]c3c2)CCN1c1ccc2nc([C@@H]3CCCN3C(=O)OC(C)(C)C)[nH]c2c1` [Compound 275], the EC50 lay in the range of 5 to 5000 nM.

Regarding `COC(=O)N[C@H](C(=O)N1C[C@@H](C)C[C@H]1c1nc2cc(-c3cc(C)c(-c4ccc5[nH]c([C@@H]6C[C@H](C)CN6C(=O)[C@H](C(C)C)N(C)C(=O)OC)nc5c4)cc3C)ccc2[nH]1)C(C)C` [Compound 276], the EC50 was not above 5 nM.

`COC(=O)N(C)[C@H](C(=O)N1C[C@@H](C)C[C@H]1c1nc2cc(-c3cc(C)c(-c4ccc5[nH]c([C@@H]6C[C@H](C)CN6C(=O)[C@H](C(C)C)N(C)C(=O)OC)nc5c4)cc3C)ccc2[nH]1)C(C)C` [Compound 277]: the EC50 was not above 5 nM.

As for `COC(=O)N(C)[C@H](C(=O)N1C[C@@H](C)C[C@H]1c1nc2cc(-c3ccc(-c4ccc5[nH]c([C@@H]6C[C@H](C)CN6C(=O)[C@H](C(C)C)N(C)C(=O)OC)nc5c4)c(F)c3)ccc2[nH]1)C(C)C` [Compound 278], the EC50 is not above 5 nM.

`COC(=O)N(C(C)C)[C@H](C(=O)N1C[C@@H](C)C[C@H]1c1nc2cc(-c3ccc(-c4ccc5nc([C@@H]6C[C@H](C)CN6C(=O)[C@H](C(C)C)N(C(=O)OC)C(C)C)[nH]c5c4)cc3)ccc2[nH]1)C(C)C` [Compound 279]: the EC50 was not above 5 nM.

Regarding `COC(=O)N[C@H](C(=O)N1C[C@@H](C)C[C@H]1c1nc2cc(-c3cc(F)c(-c4ccc5[nH]c([C@@H]6C[C@H](C)CN6C(=O)[C@@H](NC(=O)OC)C(C)C)nc5c4)cc3F)ccc2[nH]1)C(C)C` [Compound 280], the EC50 was not above 5 nM.

Take `COC(=O)N[C@H](C(=O)N1C[C@@H](C)C[C@H]1c1nc2cc(-c3cc(F)c(-c4ccc5[nH]c([C@@H]6C[C@H](C)CN6C(=O)[C@H](C(C)C)N(C)C(=O)OC)nc5c4)cc3F)ccc2[nH]1)C(C)C` [Compound 281]: the EC50 is not above 5 nM.

For the compound `COC(=O)N(C)[C@H](C(=O)N1C[C@@H](C)C[C@H]1c1nc2cc(-c3cc(F)c(-c4ccc5[nH]c([C@@H]6C[C@H](C)CN6C(=O)[C@H](C(C)C)N(C)C(=O)OC)nc5c4)cc3F)ccc2[nH]1)C(C)C` [Compound 282], the EC50 was not above 5 nM.

On to `C[C@@H]1CN(c2ccc3nc([C@@H]4CCCN4C(=O)OC(C)(C)C)[nH]c3c2)CCN1c1ccc2nc([C@@H]3CCCN3C(=O)OC(C)(C)C)[nH]c2c1` [Compound 283], for which the EC50 is more than 5000 nM.

Regarding `COC(=O)N[C@H](C(=O)N1C[C@@H](C)C[C@H]1c1nc2cc(-c3ccc(-c4ccc5nc([C@@H]6C[C@H](C)CN6C(=O)[C@H](C(C)C)N(C(=O)OC)C(C)C)[nH]c5c4)cc3)ccc2[nH]1)C(C)C` [Compound 284], the EC50 is not above 5 nM.

Take `COC(=O)N[C@H](C(=O)N1C[C@@H](C)C[C@H]1c1nc2cc(-c3ccc(-c4ccc5[nH]c([C@@H]6C[C@H](C)CN6C(=O)[C@H](C(C)C)N(C)C(=O)OC)nc5c4)cc3F)ccc2[nH]1)C(C)C` [Compound 285]: the EC50 was not above 5 nM.

With `COC(=O)N[C@H](C(=O)N1C[C@@H](C)C[C@H]1c1nc2cc(-c3ccc(-c4ccc5[nH]c([C@@H]6C[C@H](C)CN6C(=O)[C@H](C(C)C)N(C)C(=O)OC)nc5c4)c(F)c3)ccc2[nH]1)C(C)C` [Compound 286], the EC50 is not above 5 nM.

Consider `COC(=O)N1CCC[C@H]1C(=O)N1C[C@@H](C)C[C@H]1c1nc2cc(-c3ccc(-c4ccc5[nH]c([C@@H]6C[C@H](C)CN6C(=O)[C@@H]6CCCN6C(=O)OC)nc5c4)cc3)ccc2[nH]1` [Compound 287], for which the EC50 is not above 5 nM.

In the case of `COC(=O)N[C@H](C(=O)N1C[C@@H](C)C[C@H]1c1nc2cc(-c3ccc(-c4ccc5[nH]c([C@@H]6C[C@H](C)CN6C(=O)[C@@H]6CCCN6C(=O)OC)nc5c4)cc3)ccc2[nH]1)C(C)C` [Compound 288], the EC50 was not above 5 nM.

Turning to `COC(=O)N(C)[C@H](C(=O)N1C[C@@H](C)C[C@H]1c1nc2cc(-c3ccc(-c4ccc5[nH]c([C@@H]6C[C@H](C)CN6C(=O)[C@@H](Nc6ncccn6)C(C)C)nc5c4)cc3)ccc2[nH]1)C(C)C` [Compound 289], the EC50 is not above 5 nM.

For the origin of these results see patent US8354419B2, “Benzimidazole analogues for the treatment or prevention of flavivirus infections” (Vertex Pharmaceuticals Incorporated, priority 2009, dated 2013).
